This is an account of results in US20250171399A1, “PYRROLIDINE COMPOUNDS” (Eli Lilly and Company, priority 2022, published 2025).

This experiment concerns the target T1, human Apo(a) protein (Homo sapiens, UniProt P08519).
T1 sequence (P08519 1053-1693 limits assumed): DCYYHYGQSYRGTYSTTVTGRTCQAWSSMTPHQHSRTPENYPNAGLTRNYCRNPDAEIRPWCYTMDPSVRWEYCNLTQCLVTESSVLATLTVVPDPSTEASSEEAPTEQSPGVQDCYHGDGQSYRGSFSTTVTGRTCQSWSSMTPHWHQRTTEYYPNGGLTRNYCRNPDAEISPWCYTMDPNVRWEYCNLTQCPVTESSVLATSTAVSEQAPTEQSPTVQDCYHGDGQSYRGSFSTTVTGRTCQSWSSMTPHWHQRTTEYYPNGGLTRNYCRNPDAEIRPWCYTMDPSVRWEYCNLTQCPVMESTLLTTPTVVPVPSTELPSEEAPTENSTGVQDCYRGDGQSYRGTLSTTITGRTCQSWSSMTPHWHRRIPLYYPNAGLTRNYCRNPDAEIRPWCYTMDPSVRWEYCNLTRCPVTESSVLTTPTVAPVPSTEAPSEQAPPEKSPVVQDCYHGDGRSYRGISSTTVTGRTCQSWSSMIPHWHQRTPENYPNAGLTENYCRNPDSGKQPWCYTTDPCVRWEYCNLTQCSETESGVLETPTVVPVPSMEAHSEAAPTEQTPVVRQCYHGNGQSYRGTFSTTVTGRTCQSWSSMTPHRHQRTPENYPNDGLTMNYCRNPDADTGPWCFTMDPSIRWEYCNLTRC
Description: In vitro Apo(a) binding assay (competitive SPA radioligand binding). The note with it: competitive binding vs tritium-labeled radioligand 0.52 nM; human Apo(a) containing 17 Kringle repeats; 60 min at RT. The protocol: The in vitro binding affinity of compounds to the intended target human Apo(a) protein were tested in a competitive binding assay. Human Apo(a) protein containing 17 Kringle repeats was affinity purified from conditioned media of transiently transfected HEK-293F cells. All reagents were prepared in assay buffer containing 50 mM Tris-HCl pH 7.4, 0.1% BSA. The binding assay was conducted by adding to each well of a clear-bottom plate 50 μL each of (1) test compound in dilution series (final concentration 0.32˜10000 nM), (2) Apo(a) protein (6 ng/well), (3) re-suspended Wheat Germ Agglutinin Polyvinyltoluene SPA beads (20 mg/mL), and (4) the radioligand, tritium-labeled (2S)-3-[3-[2-oxo-3-[3-(tritritiomethoxy)phenyl]imidazolidin-1-yl]phenyl]-2-[(3R)-pyrrolidin-3-yl]propanoic acid hydrochloride (prepared essentially as described in WO 2020/247429; final concentration 0.52 nM). Plates were incubated for 60 min at RT and counted on TRILUX LSC. Non-specific binding, defined as binding in the presence of […] cold (i.e. non-radiolabeled) ligand: (2S)-3-[3-[2-oxo-3-[3-(methoxy)phenyl]imidazolidin-1-yl]phenyl]-2-[(3R)-pyrrolidin-3-yl]propanoic acid hydrochloride (prepared essentially as described in WO 2020/247429) was subtracted to determine specific binding. Data were analyzed by fitting to a standard single site binding model and the IC50 for the Example test compound was determined. […]

Structures can show the parent of a compound that is named as a salt.

As a reminder, the IC50 is the concentration that gives 50% inhibition.

On to `COc1cc(F)cc(CNc2cccc(C[C@H](C(=O)O)[C@H]3CCNC3)c2)c1` [Example 6, (2S)-3-[3-[[(3-Fluoro-5-methoxy-phenyl)methyl]amino]phenyl]-2-[(3R)-pyrrolidin-3-yl]propanoic acid;hydrochloride], for which the IC50 stood at 4.68 nM.
